Test results taken from the NIST ThermoML archive (doi:10.1021/je050050p).
± gives the expanded uncertainty stated by the source.

Conditions: Liquid, Vibrating tube method

## CN(C)C=O [dimethylformamide]
313.12 K, 1008 kPa
  mass density: 930.41 ± 0.41 kg/m3
313.12 K, 2010 kPa
  mass density: 931.09 ± 0.41 kg/m3
313.12 K, 3012 kPa
  mass density: 931.73 ± 0.41 kg/m3
313.12 K, 4008 kPa
  mass density: 932.38 ± 0.41 kg/m3
313.12 K, 5004 kPa
  mass density: 933.04 ± 0.41 kg/m3
313.12 K, 6002 kPa
  mass density: 933.68 ± 0.41 kg/m3
313.12 K, 7002 kPa
  mass density: 934.32 ± 0.41 kg/m3
313.12 K, 8004 kPa
  mass density: 934.97 ± 0.41 kg/m3
313.12 K, 9000 kPa
  mass density: 935.62 ± 0.41 kg/m3
313.12 K, 10004 kPa
  mass density: 936.27 ± 0.41 kg/m3
313.12 K, 11004 kPa
  mass density: 936.89 ± 0.41 kg/m3
313.12 K, 12004 kPa
  mass density: 937.51 ± 0.41 kg/m3
313.12 K, 13005 kPa
  mass density: 938.14 ± 0.41 kg/m3
313.12 K, 14007 kPa
  mass density: 938.78 ± 0.41 kg/m3
313.12 K, 15002 kPa
  mass density: 939.37 ± 0.41 kg/m3
313.12 K, 16012 kPa
  mass density: 940 ± 0.41 kg/m3
313.12 K, 17009 kPa
  mass density: 940.59 ± 0.41 kg/m3
313.12 K, 18015 kPa
  mass density: 941.19 ± 0.41 kg/m3
313.12 K, 19010 kPa
  mass density: 941.79 ± 0.41 kg/m3
313.12 K, 20013 kPa
  mass density: 942.42 ± 0.41 kg/m3
313.12 K, 21009 kPa
  mass density: 942.99 ± 0.41 kg/m3
313.12 K, 22011 kPa
  mass density: 943.58 ± 0.41 kg/m3
313.12 K, 23019 kPa
  mass density: 944.17 ± 0.41 kg/m3
313.12 K, 24013 kPa
  mass density: 944.75 ± 0.41 kg/m3
313.12 K, 25011 kPa
  mass density: 945.35 ± 0.41 kg/m3
323.06 K, 1014 kPa
  mass density: 920.89 ± 0.41 kg/m3
323.06 K, 2007 kPa
  mass density: 921.59 ± 0.41 kg/m3
323.06 K, 3026 kPa
  mass density: 922.27 ± 0.41 kg/m3
323.06 K, 4006 kPa
  mass density: 922.95 ± 0.41 kg/m3
323.06 K, 5016 kPa
  mass density: 923.62 ± 0.41 kg/m3
323.06 K, 6010 kPa
  mass density: 924.3 ± 0.41 kg/m3
323.06 K, 7006 kPa
  mass density: 924.99 ± 0.41 kg/m3
323.06 K, 8010 kPa
  mass density: 925.64 ± 0.41 kg/m3
323.06 K, 9012 kPa
  mass density: 926.32 ± 0.41 kg/m3
323.06 K, 10014 kPa
  mass density: 926.99 ± 0.41 kg/m3
323.06 K, 11011 kPa
  mass density: 927.65 ± 0.41 kg/m3
323.06 K, 12013 kPa
  mass density: 928.31 ± 0.41 kg/m3
323.06 K, 13007 kPa
  mass density: 928.97 ± 0.41 kg/m3
323.06 K, 14011 kPa
  mass density: 929.62 ± 0.41 kg/m3
323.06 K, 15008 kPa
  mass density: 930.29 ± 0.41 kg/m3
323.06 K, 16014 kPa
  mass density: 930.92 ± 0.41 kg/m3
323.06 K, 17004 kPa
  mass density: 931.54 ± 0.41 kg/m3
323.06 K, 18006 kPa
  mass density: 932.19 ± 0.41 kg/m3
323.06 K, 19006 kPa
  mass density: 932.82 ± 0.41 kg/m3
323.06 K, 20005 kPa
  mass density: 933.44 ± 0.41 kg/m3
323.06 K, 21002 kPa
  mass density: 934.07 ± 0.42 kg/m3
323.06 K, 22013 kPa
  mass density: 934.7 ± 0.42 kg/m3
323.06 K, 23015 kPa
  mass density: 935.31 ± 0.42 kg/m3
323.06 K, 24008 kPa
  mass density: 935.92 ± 0.42 kg/m3
323.06 K, 25012 kPa
  mass density: 936.53 ± 0.42 kg/m3
333 K, 1008 kPa
  mass density: 911.34 ± 0.41 kg/m3
333 K, 2018 kPa
  mass density: 912.08 ± 0.41 kg/m3
333 K, 3006 kPa
  mass density: 912.78 ± 0.41 kg/m3
333 K, 4005 kPa
  mass density: 913.51 ± 0.41 kg/m3
333 K, 5005 kPa
  mass density: 914.23 ± 0.41 kg/m3
333 K, 6008 kPa
  mass density: 914.97 ± 0.41 kg/m3
333 K, 7003 kPa
  mass density: 915.68 ± 0.41 kg/m3
333 K, 8009 kPa
  mass density: 916.39 ± 0.41 kg/m3
333 K, 9010 kPa
  mass density: 917.11 ± 0.41 kg/m3
333 K, 10008 kPa
  mass density: 917.81 ± 0.41 kg/m3
333 K, 11008 kPa
  mass density: 918.51 ± 0.41 kg/m3
333 K, 12008 kPa
  mass density: 919.2 ± 0.41 kg/m3
333 K, 13013 kPa
  mass density: 919.9 ± 0.41 kg/m3
333 K, 14006 kPa
  mass density: 920.57 ± 0.41 kg/m3
333 K, 15007 kPa
  mass density: 921.24 ± 0.41 kg/m3
333 K, 16011 kPa
  mass density: 921.92 ± 0.42 kg/m3
333 K, 17019 kPa
  mass density: 922.59 ± 0.42 kg/m3
333 K, 18010 kPa
  mass density: 923.27 ± 0.42 kg/m3
333 K, 19004 kPa
  mass density: 923.91 ± 0.42 kg/m3
333 K, 20012 kPa
  mass density: 924.58 ± 0.42 kg/m3
333 K, 21005 kPa
  mass density: 925.24 ± 0.42 kg/m3
333 K, 22005 kPa
  mass density: 925.88 ± 0.42 kg/m3
333 K, 23014 kPa
  mass density: 926.52 ± 0.42 kg/m3
333 K, 24009 kPa
  mass density: 927.19 ± 0.42 kg/m3
333 K, 25009 kPa
  mass density: 927.83 ± 0.42 kg/m3
342.86 K, 1028 kPa
  mass density: 901.52 ± 0.41 kg/m3
342.86 K, 2020 kPa
  mass density: 902.3 ± 0.41 kg/m3
342.86 K, 3015 kPa
  mass density: 903.09 ± 0.41 kg/m3
342.86 K, 4002 kPa
  mass density: 903.84 ± 0.41 kg/m3
342.86 K, 5035 kPa
  mass density: 904.63 ± 0.41 kg/m3
342.86 K, 6026 kPa
  mass density: 905.39 ± 0.41 kg/m3
342.86 K, 7013 kPa
  mass density: 906.13 ± 0.41 kg/m3
342.86 K, 8017 kPa
  mass density: 906.89 ± 0.41 kg/m3
342.86 K, 9024 kPa
  mass density: 907.66 ± 0.41 kg/m3
342.86 K, 10012 kPa
  mass density: 908.38 ± 0.41 kg/m3
342.86 K, 11048 kPa
  mass density: 909.14 ± 0.41 kg/m3
342.86 K, 11999 kPa
  mass density: 909.83 ± 0.41 kg/m3
342.86 K, 13018 kPa
  mass density: 910.6 ± 0.42 kg/m3
342.86 K, 14029 kPa
  mass density: 911.32 ± 0.42 kg/m3
342.86 K, 15007 kPa
  mass density: 912.03 ± 0.42 kg/m3
342.86 K, 15994 kPa
  mass density: 912.71 ± 0.42 kg/m3
342.86 K, 17041 kPa
  mass density: 913.47 ± 0.42 kg/m3
342.86 K, 18012 kPa
  mass density: 914.16 ± 0.42 kg/m3
342.86 K, 19006 kPa
  mass density: 914.85 ± 0.42 kg/m3
342.86 K, 20042 kPa
  mass density: 915.55 ± 0.42 kg/m3
342.86 K, 21025 kPa
  mass density: 916.22 ± 0.42 kg/m3
342.86 K, 22008 kPa
  mass density: 916.9 ± 0.42 kg/m3
342.86 K, 23079 kPa
  mass density: 917.63 ± 0.42 kg/m3
342.86 K, 24008 kPa
  mass density: 918.25 ± 0.42 kg/m3
342.86 K, 25017 kPa
  mass density: 918.93 ± 0.42 kg/m3
352.8 K, 1040 kPa
  mass density: 891.76 ± 0.41 kg/m3
352.8 K, 2009 kPa
  mass density: 892.57 ± 0.41 kg/m3
352.8 K, 3011 kPa
  mass density: 893.41 ± 0.41 kg/m3
352.8 K, 4020 kPa
  mass density: 894.22 ± 0.41 kg/m3
352.8 K, 5050 kPa
  mass density: 895.06 ± 0.41 kg/m3
352.8 K, 6060 kPa
  mass density: 895.78 ± 0.41 kg/m3
352.8 K, 6996 kPa
  mass density: 896.53 ± 0.41 kg/m3
352.8 K, 8008 kPa
  mass density: 897.34 ± 0.41 kg/m3
352.8 K, 9034 kPa
  mass density: 898.16 ± 0.41 kg/m3
352.8 K, 10019 kPa
  mass density: 898.93 ± 0.42 kg/m3
352.8 K, 11043 kPa
  mass density: 899.73 ± 0.42 kg/m3
352.8 K, 11998 kPa
  mass density: 900.45 ± 0.42 kg/m3
352.8 K, 13028 kPa
  mass density: 901.24 ± 0.42 kg/m3
352.8 K, 14015 kPa
  mass density: 901.99 ± 0.42 kg/m3
352.8 K, 15028 kPa
  mass density: 902.74 ± 0.42 kg/m3
352.8 K, 16000 kPa
  mass density: 903.48 ± 0.42 kg/m3
352.8 K, 17011 kPa
  mass density: 904.23 ± 0.42 kg/m3
352.8 K, 17999 kPa
  mass density: 904.96 ± 0.42 kg/m3
352.8 K, 19044 kPa
  mass density: 905.73 ± 0.42 kg/m3
352.8 K, 20050 kPa
  mass density: 906.43 ± 0.42 kg/m3
352.8 K, 21038 kPa
  mass density: 907.16 ± 0.42 kg/m3
352.8 K, 21955 kPa
  mass density: 907.8 ± 0.42 kg/m3
352.8 K, 23009 kPa
  mass density: 908.57 ± 0.42 kg/m3
352.8 K, 23996 kPa
  mass density: 909.27 ± 0.43 kg/m3
352.8 K, 25056 kPa
  mass density: 910.04 ± 0.43 kg/m3
362.67 K, 1058 kPa
  mass density: 882.04 ± 0.41 kg/m3
362.67 K, 2038 kPa
  mass density: 882.89 ± 0.41 kg/m3
362.67 K, 3044 kPa
  mass density: 883.77 ± 0.41 kg/m3
362.67 K, 4027 kPa
  mass density: 884.62 ± 0.41 kg/m3
362.67 K, 5068 kPa
  mass density: 885.54 ± 0.41 kg/m3
362.67 K, 6036 kPa
  mass density: 886.37 ± 0.41 kg/m3
362.67 K, 7025 kPa
  mass density: 887.22 ± 0.41 kg/m3
362.67 K, 8027 kPa
  mass density: 888.03 ± 0.42 kg/m3
362.67 K, 9045 kPa
  mass density: 888.9 ± 0.42 kg/m3
362.67 K, 10021 kPa
  mass density: 889.71 ± 0.42 kg/m3
362.67 K, 11024 kPa
  mass density: 890.55 ± 0.42 kg/m3
362.67 K, 11996 kPa
  mass density: 891.3 ± 0.42 kg/m3
362.67 K, 13061 kPa
  mass density: 892.19 ± 0.42 kg/m3
362.67 K, 14027 kPa
  mass density: 892.95 ± 0.42 kg/m3
362.67 K, 15025 kPa
  mass density: 893.73 ± 0.42 kg/m3
362.67 K, 15987 kPa
  mass density: 894.49 ± 0.42 kg/m3
362.67 K, 17050 kPa
  mass density: 895.32 ± 0.42 kg/m3
362.67 K, 18009 kPa
  mass density: 896.08 ± 0.42 kg/m3
362.67 K, 19041 kPa
  mass density: 896.85 ± 0.42 kg/m3
362.67 K, 20032 kPa
  mass density: 897.62 ± 0.43 kg/m3
362.67 K, 21035 kPa
  mass density: 898.36 ± 0.43 kg/m3
362.67 K, 22014 kPa
  mass density: 899.1 ± 0.43 kg/m3
362.67 K, 23018 kPa
  mass density: 899.87 ± 0.43 kg/m3
362.67 K, 24007 kPa
  mass density: 900.58 ± 0.43 kg/m3
362.67 K, 25016 kPa
  mass density: 901.35 ± 0.43 kg/m3
